Measurements published in ChEMBL document CHEMBL3608201, “Synthesis and biological evaluation of levofloxacin core-based derivatives with potent antibacterial activity against resistant Gram-positive pathogens” (Bioorg Med Chem Lett, 2015).
In brackets after ≈: the same amount, converted by molar mass.

Columns and labels:
[1] = system: Staphylococcus epidermidis; assay: Antimicrobial activity against Staphylococcus epidermidis ATCC 12228 by standard broth microdilution method; format: functional
Streptococcus pneumoniae [2] = assay: Antimicrobial activity against penicillin-resistant Streptococcus pneumoniae clinical isolates by standard broth microdilution method; format: functional
Staphylococcus aureus [3] = assay: Antimicrobial activity against levofloxacin-resistant Staphylococcus aureus clinical isolates by standard broth microdilution method; format: functional
Streptococcus pyogenes [4] = assay: Antimicrobial activity against Streptococcus pyogenes ATCC 19615 by standard broth microdilution method; format: functional
Streptococcus pneumoniae [5] = assay: Antimicrobial activity against Streptococcus pneumoniae ATCC 49619 by standard broth microdilution method; format: functional
[6] = Aqueous solubility of the compound in water; format: physicochemical
Staphylococcus aureus [7] = assay: Antimicrobial activity against methicillin-resistant Staphylococcus aureus clinical isolates by standard broth microdilution method; format: functional
Pseudomonas aeruginosa = assay: Antimicrobial activity against Pseudomonas aeruginosa ATCC 27853 by standard broth microdilution method; format: functional
Staphylococcus aureus [8] = assay: Antimicrobial activity against Staphylococcus aureus ATCC 25923 by standard broth microdilution method; format: functional
Escherichia coli [9] = assay: Antimicrobial activity against Escherichia coli ATCC 25922 by standard broth microdilution method; format: functional
Escherichia coli [10] = assay: Antimicrobial activity against ciprofloxacin-resistant Escherichia coli clinical isolates by standard broth microdilution method; format: functional
[11] = system: Staphylococcus epidermidis; assay: Antimicrobial activity against methicillin-resistant Staphylococcus epidermidis clinical isolates by standard broth microdilution method; format: functional
Staphylococcus aureus [12] = assay: Potency index, ratio of MIC for ciprofloxacin to MIC for test compound against Staphylococcus aureus ATCC 25923 by standard broth microdilution method; format: functional
Staphylococcus aureus [13] = assay: Potency index, ratio of MIC for moxifloxacin to MIC for test compound against Staphylococcus aureus ATCC 25923 by standard broth microdilution method; format: functional
[14] = Elimination half life in beagle dog at 18.8 mg/kg, iv administered as single dose; format: ADME, organism-based, Canis lupus familiaris; conditions: in vivo, read-out: beta t1/2 (converted)
[15] = AUC (0 to infinity) in beagle dog at 18.8 mg/kg, iv administered as single dose; format: ADME, organism-based, Canis lupus familiaris; set-up: dose 18.8 mg/kg, time infinity, route intravenous; conditions: in vivo
[16] = Plasma clearance in beagle dog at 18.8 mg/kg, iv administered as single dose; format: ADME, organism-based, Canis lupus familiaris
Streptococcus pneumoniae [17] = assay: Potency index, ratio of MIC for levofloxacin to MIC for test compound against penicillin-resistant Streptococcus pneumoniae clinical isolates by standard broth microdilution method; format: functional
Streptococcus pneumoniae [18] = assay: Potency index, ratio of MIC for ciprofloxacin to MIC for test compound against penicillin-resistant Streptococcus pneumoniae clinical isolates by standard broth microdilution method; format: functional
Staphylococcus aureus [19] = assay: Potency index, ratio of MIC for moxifloxacin to MIC for test compound against methicillin-resistant Staphylococcus aureus clinical isolates by standard broth microdilution method; format: functional
[20] = Volume of distribution in beagle dog at 18.8 mg/kg, iv administered as single dose; format: ADME, organism-based, Canis lupus familiaris; conditions: in vivo
Streptococcus pneumoniae [21] = assay: Potency index, ratio of MIC for penicillin to MIC for test compound against penicillin-resistant Streptococcus pneumoniae clinical isolates by standard broth microdilution method; format: functional
Streptococcus pyogenes [22] = assay: Potency index, ratio of MIC for penicillin to MIC for test compound against Streptococcus pyogenes ATCC 19615 by standard broth microdilution method; format: functional
[23] = Toxicity in ICR mouse administered as single intravenous dose; format: organism-based; conditions: in vivo
[24] = Cmax in beagle dog at 18.8 mg/kg, iv administered as single dose; format: ADME, organism-based, Canis lupus familiaris; set-up: dose 18.8 mg/kg, route intravenous; conditions: in vivo
Streptococcus pyogenes [25] = assay: Potency index, ratio of MIC for levofloxacin to MIC for test compound against Streptococcus pyogenes ATCC 19615 by standard broth microdilution method; format: functional
[26] = Tmax in beagle dog at 18.8 mg/kg, iv administered as single dose; format: ADME, organism-based, Canis lupus familiaris; conditions: in vivo
Streptococcus pyogenes [27] = assay: Potency index, ratio of MIC for ciprofloxacin to MIC for test compound against Streptococcus pyogenes ATCC 19615 by standard broth microdilution method; format: functional

Row | SMILES | MIC [1] | MIC (Streptococcus pneumoniae [2]) | MIC (Staphylococcus aureus [3]) | MIC (Streptococcus pyogenes [4]) | MIC (Streptococcus pneumoniae [5]) | solubility [6] | MIC (Staphylococcus aureus [7]) | MIC (Pseudomonas aeruginosa) | MIC (Staphylococcus aureus [8]) | MIC (Escherichia coli [9]) | MIC (Escherichia coli [10]) | MIC [11] | further results
1 | C[C@H]1COc2c(N3CC[C@H](O)C3)c(F)cc3c(=O)c(C(=O)O)cn1c23.O | 0.125 µg/mL | ≤ 0.016 µg/mL | 0.25 µg/mL | ≤ 0.016 µg/mL | 0.125 µg/mL | 370 µg/mL | 2 µg/mL | 1 µg/mL | 0.031 µg/mL | 0.031 µg/mL | 0.0625 µg/mL | 1 µg/mL | –
2 | C[C@H]1COc2c(N3CCC(O)CC3)c(F)cc3c(=O)c(C(=O)O)cn1c23 | 0.031 µg/mL (≈ 0.0856 µM) | 0.031 µg/mL (≈ 0.0856 µM) | 0.5 µg/mL (≈ 1.38 µM) | 0.0625 µg/mL (≈ 0.172 µM) | 0.125 µg/mL (≈ 0.345 µM) | 650 µg/mL (≈ 1790 µM) | 1 µg/mL (≈ 2.76 µM) | 2 µg/mL (≈ 5.52 µM) | 0.031 µg/mL (≈ 0.0856 µM) | 0.125 µg/mL (≈ 0.345 µM) | 0.25 µg/mL (≈ 0.69 µM) | 0.5 µg/mL (≈ 1.38 µM) | Ratio (Staphylococcus aureus [12]): 16; Ratio (Staphylococcus aureus [13]): 2
3 | C[C@H]1COc2c(N3CCC(O)CC3)c(F)cc3c(=O)c(C(=O)[O-])cn1c23.[K+] | 0.0625 µg/mL | 0.25 µg/mL | 4 µg/mL | 0.25 µg/mL | 0.5 µg/mL | – | 8 µg/mL | 2 µg/mL | 0.0625 µg/mL | 0.5 µg/mL | 1 µg/mL | 2 µg/mL | –
4 | C[C@H]1COc2c(N3CCC(O)CC3)c(F)cc3c(=O)c(C(=O)O)cn1c23.N=C(N)NCCC[C@H](N)C(=O)O.O | 0.031 µg/mL | ≤ 0.016 µg/mL | 0.25 µg/mL | ≤ 0.016 µg/mL | 0.125 µg/mL | 5330 µg/mL | 1 µg/mL | 2 µg/mL | 0.031 µg/mL | 0.125 µg/mL | 0.25 µg/mL | 1 µg/mL | half-life [14]: 3.25 h; AUC(0-inf) [15]: 27000 ng·h/mL; clearance [16]: 11.6 mL/min/kg; Ratio (Streptococcus pneumoniae [17]): 32; Ratio (Streptococcus pneumoniae [18]): 32; Ratio (Staphylococcus aureus [19]): 4; Vd [20]: 3.27 L/kg; Ratio (Streptococcus pneumoniae [21]): 64; Ratio (Streptococcus pyogenes [22]): 64; LD50 [23]: 1400 mg/kg; Cmax [24]: 15700 ng/mL; Ratio (Streptococcus pyogenes [25]): 32; Tmax [26]: 4.8 min; Ratio (Streptococcus pyogenes [27]): 32
5 | C[C@H]1COc2c(N3CCC(O)CC3)c(F)cc3c(=O)c(C(=O)[O-])cn1c23.[Na+] | 0.0625 µg/mL | 0.125 µg/mL | 2 µg/mL | 0.125 µg/mL | 0.5 µg/mL | – | 4 µg/mL | 2 µg/mL | 0.0625 µg/mL | 0.25 µg/mL | 0.5 µg/mL | 2 µg/mL | –
6 | C[C@H]1COc2c(N3CC[C@H](O)C3)c(F)cc3c(=O)c(C(=O)[O-])cn1c23.[Na+] | 0.125 µg/mL | 4 µg/mL | 2 µg/mL | 4 µg/mL | 4 µg/mL | – | 4 µg/mL | 2 µg/mL | 0.0625 µg/mL | 0.0625 µg/mL | 0.25 µg/mL | 2 µg/mL | –
7 | O=C(O)c1cn2c3c(c(N4CC(O)C4)c(F)cc3c1=O)OC[C@@H]2CF | 0.0625 µg/mL (≈ 0.177 µM) | – | – | 0.0625 µg/mL (≈ 0.177 µM) | 0.25 µg/mL (≈ 0.71 µM) | – | – | 4 µg/mL (≈ 11.4 µM) | 0.125 µg/mL (≈ 0.355 µM) | 0.25 µg/mL (≈ 0.71 µM) | – | – | –
8 | O=C(O)c1cn2c3c(c(N4CC[C@@H](O)C4)c(F)cc3c1=O)OC[C@@H]2CF | 0.0625 µg/mL (≈ 0.171 µM) | 0.25 µg/mL (≈ 0.682 µM) | 2 µg/mL (≈ 5.46 µM) | 0.0625 µg/mL (≈ 0.171 µM) | 0.5 µg/mL (≈ 1.36 µM) | – | 4 µg/mL (≈ 10.9 µM) | 2 µg/mL (≈ 5.46 µM) | 0.25 µg/mL (≈ 0.682 µM) | 0.125 µg/mL (≈ 0.341 µM) | 1 µg/mL (≈ 2.73 µM) | 2 µg/mL (≈ 5.46 µM) | –
9 | C[C@H]1COc2c(N3CC[C@H](O)C3)c(F)cc3c(=O)c(C(=O)[O-])cn1c23.[K+] | 0.5 µg/mL | 4 µg/mL | 2 µg/mL | 4 µg/mL | 8 µg/mL | – | 4 µg/mL | 4 µg/mL | 0.0625 µg/mL | 0.125 µg/mL | 0.5 µg/mL | 4 µg/mL | –
10 | C[C@H]1COc2c(N3CCN(C)CC3)c(F)cc3c(=O)c(C(=O)O)cn1c23.C[C@H]1COc2c(N3CCN(C)CC3)c(F)cc3c(=O)c(C(=O)O)cn1c23.O [LEVOFLOXACIN] | 0.125 µg/mL | – | 4 µg/mL | 0.5 µg/mL | – | – | 32 µg/mL | – | 0.25 µg/mL | ≤ 0.016 µg/mL | 8 µg/mL | 8 µg/mL | LD50 [23]: 358 mg/kg
